Test results taken from US20050112573A1, “Method of detecting toxic substance” (priority 2001, published 2005).

Tested on: yeast genes (level of expressed mRNA)
Assay: DNA chip analysis of expressed mRNA of yeast genes after 2 h culture with a toxic chemical substance
Type: cell-based, Saccharomyces cerevisiae S288C
Procedure, shortened: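 S. cerevisiae S288C in YPD at 25 °C was exposed at log phase for 2 h to a growth-inhibiting, non-lethal concentration of the chemical. Poly(A) mRNA was reverse-transcribed with Cy3- or Cy5-dUTP and hybridized to a whole-genome yeast DNA chip (65 °C, >12 h). Values are fluorescence ratios versus untreated cells.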

Structure (SMILES): C[S+](C)[O-] [(15), dimethylsulfoxide]
- The level of expressed mRNA in the presence of chemical substance/absence: YGR293C (gene YGR293C): 0.7
- The level of expressed mRNA in the presence of chemical substance/absence: YHL006C (gene YHL006C): 0.6
- The level of expressed mRNA in the presence of chemical substance/absence: YHL021C (gene YHL021C): 1.2
- The level of expressed mRNA in the presence of chemical substance/absence: YHL037C (gene YHL037C): 0.8
- level of expressed mRNA in the presence of chemical substance/in its absence (gene YHR037W): 1.1
- The level of expressed mRNA in the presence of chemical substance/absence: YHR083W (gene YHR083W): 1.3
- level of expressed mRNA in the presence of chemical substance/in its absence (gene YHR092C): 0.2
- The level of expressed mRNA in the presence of chemical substance/absence: YHR095W (gene YHR095W): 0.8
- The level of expressed mRNA in the presence of chemical substance/absence: YHR105W (gene YHR105W): 0.9
- The level of expressed mRNA in the presence of chemical substance/absence: YHR134W (gene YHR134W): 1.0
- level of expressed mRNA in the presence of chemical substance/in its absence (gene YHR137W): 2.8
- The level of expressed mRNA in the presence of chemical substance/absence: YHR180W (gene YHR180W): 0.8
- The level of expressed mRNA in the presence of chemical substance/absence: YHR181W (gene YHR181W): 1.4
- level of expressed mRNA in the presence of chemical substance/in its absence (gene YHR190W): 1.3
- level of expressed mRNA in the presence of chemical substance/in its absence (gene YIL033C): 1.0
- The level of expressed mRNA in the presence of chemical substance/absence: YIL108W (gene YIL108W): 1.8
- The level of expressed mRNA in the presence of chemical substance/absence: YIL127C (gene YIL127C): 0.7
- level of expressed mRNA in the presence of chemical substance/in its absence (gene YIL154C): 4.3
- The level of expressed mRNA in the presence of chemical substance/absence: YIL165C (gene YIL165C): 0.8
- level of expressed mRNA in the presence of chemical substance/in its absence (gene YIL167W): 0.6
- level of expressed mRNA in the presence of chemical substance/in its absence (gene YIR035C): 1.4
- The level of expressed mRNA in the presence of chemical substance/absence: YJL017W (gene YJL017W): 1.1
- The level of expressed mRNA in the presence of chemical substance/absence: YJL032W (gene YJL032W): 1.0
- The level of expressed mRNA in the presence of chemical substance/absence: YJL037W (gene YJL037W): 1.6
- The level of expressed mRNA in the presence of chemical substance/absence: YJL049W (gene YJL049W): 0.8
- level of expressed mRNA in the presence of chemical substance/in its absence (gene YJL088W): 5.7
- The level of expressed mRNA in the presence of chemical substance/absence: YJL097W (gene YJL097W): 1.1
- level of expressed mRNA in the presence of chemical substance/in its absence (gene YJL132W): 1.1
- level of expressed mRNA in the presence of chemical substance/in its absence (gene YJL196C): 0.6
- The level of expressed mRNA in the presence of chemical substance/absence: YJR030C (gene YJR030C): 0.8
- The level of expressed mRNA in the presence of chemical substance/absence: YJR044C (gene YJR044C): 1.6
- level of expressed mRNA in the presence of chemical substance/in its absence (gene YJR142W): 0.6
- level of expressed mRNA in the presence of chemical substance/in its absence (gene YJR148W): 3.2
- level of expressed mRNA in the presence of chemical substance/in its absence (gene YJR159W): 2.3
- The level of expressed mRNA in the presence of chemical substance/absence: YKL051W (gene YKL051W): 1.5
- The level of expressed mRNA in the presence of chemical substance/absence: YKL059C (gene YKL059C): 1.1
- level of expressed mRNA in the presence of chemical substance/in its absence (gene YKL067W): 1.1
- The level of expressed mRNA in the presence of chemical substance/absence: YKL090W (gene YKL090W): 0.8
- The level of expressed mRNA in the presence of chemical substance/absence: YKL094W (gene YKL094W): 1.0
- The level of expressed mRNA in the presence of chemical substance/absence: YKL097C (gene YKL097C): 0.8
- The level of expressed mRNA in the presence of chemical substance/absence: YKL100C (gene YKL100C): 1.7
- level of expressed mRNA in the presence of chemical substance/in its absence (gene YKR039W): 1.7
- The level of expressed mRNA in the presence of chemical substance/absence: YKR040C (gene YKR040C): 1.1
- The level of expressed mRNA in the presence of chemical substance/absence: YLR097C (gene YLR097C): 0.9
- level of expressed mRNA in the presence of chemical substance/in its absence (gene YLR142W): 1.6
- level of expressed mRNA in the presence of chemical substance/in its absence (gene YLR180W): 2.5
- The level of expressed mRNA in the presence of chemical substance/absence: YLR226W (gene YLR226W): 1.3
- level of expressed mRNA in the presence of chemical substance/in its absence (gene YLR273C): 2.6
- level of expressed mRNA in the presence of chemical substance/in its absence (gene YLR300W): 2.7
- level of expressed mRNA in the presence of chemical substance/in its absence (gene YLR307W): 3.9
- The level of expressed mRNA in the presence of chemical substance/absence: YLR338W (gene YLR338W): 1.5
- The level of expressed mRNA in the presence of chemical substance/absence: YLR339C (gene YLR339C): 1.0
- The level of expressed mRNA in the presence of chemical substance/absence: YLR392C (gene YLR392C): 0.5
- The level of expressed mRNA in the presence of chemical substance/absence: YLR415C (gene YLR415C): 1.0
- The level of expressed mRNA in the presence of chemical substance/absence: YLR427W (gene YLR427W): 0.8
- The level of expressed mRNA in the presence of chemical substance/absence: YML013W (gene YML013W): 2.2
- The level of expressed mRNA in the presence of chemical substance/absence: YML029W (gene YML029W): 0.8
- The level of expressed mRNA in the presence of chemical substance/absence: YML041C (gene YML041C): 1.0
- The level of expressed mRNA in the presence of chemical substance/absence: YML079W (gene YML079W): 0.3
- level of expressed mRNA in the presence of chemical substance/in its absence (gene YML110C): 1.3
- The level of expressed mRNA in the presence of chemical substance/absence: YML118W (gene YML118W): 2.2
- The level of expressed mRNA in the presence of chemical substance/absence: YMR068W (gene YMR068W): 2.2
- The level of expressed mRNA in the presence of chemical substance/absence: YMR071C (gene YMR071C): 0.8
- level of expressed mRNA in the presence of chemical substance/in its absence (gene YMR105C): 0.9
- The level of expressed mRNA in the presence of chemical substance/absence: YMR114C (gene YMR114C): 1.2
- The level of expressed mRNA in the presence of chemical substance/absence: YMR115W (gene YMR115W): 1.2
- The level of expressed mRNA in the presence of chemical substance/absence: YMR160W (gene YMR160W): 1.5
- level of expressed mRNA in the presence of chemical substance/in its absence (gene YMR189W): 5.6
- The level of expressed mRNA in the presence of chemical substance/absence: YMR258C (gene YMR258C): 0.6
- level of expressed mRNA in the presence of chemical substance/in its absence (gene YMR271C): 0.6
- level of expressed mRNA in the presence of chemical substance/in its absence (gene YMR272C): 1.1
- level of expressed mRNA in the presence of chemical substance/in its absence (gene YMR296C): 6.7
- level of expressed mRNA in the presence of chemical substance/in its absence (gene YNL012W): 1.6
- The level of expressed mRNA in the presence of chemical substance/absence: YNL026W (gene YNL026W): 0.8
- level of expressed mRNA in the presence of chemical substance/in its absence (gene YNL037C): 0.9
- level of expressed mRNA in the presence of chemical substance/in its absence (gene YNL045W): 0.8
- The level of expressed mRNA in the presence of chemical substance/absence: YNL058C (gene YNL058C): 2.2
- The level of expressed mRNA in the presence of chemical substance/absence: YNL063W (gene YNL063W): 0.7
- level of expressed mRNA in the presence of chemical substance/in its absence (gene YNL104C): 2.5
- level of expressed mRNA in the presence of chemical substance/in its absence (gene YNL106C): 3.3
- level of expressed mRNA in the presence of chemical substance/in its absence (gene YNL130C): 2.5
- level of expressed mRNA in the presence of chemical substance/in its absence (gene YNL169C): 3.4
- The level of expressed mRNA in the presence of chemical substance/absence: YNL176C (gene YNL176C): 0.8
- The level of expressed mRNA in the presence of chemical substance/absence: YNL181W (gene YNL181W): 1.0
- The level of expressed mRNA in the presence of chemical substance/absence: YNL191W (gene YNL191W): 1.0
- The level of expressed mRNA in the presence of chemical substance/absence: YNL194C (gene YNL194C): 0.5
- The level of expressed mRNA in the presence of chemical substance/absence: YNL200C (gene YNL200C): 0.8
- The level of expressed mRNA in the presence of chemical substance/absence: YNL212W (gene YNL212W): 0.9
- level of expressed mRNA in the presence of chemical substance/in its absence (gene YNL231C): 0.9
- The level of expressed mRNA in the presence of chemical substance/absence: YNL253W (gene YNL253W): 0.5
- The level of expressed mRNA in the presence of chemical substance/absence: YNL265C (gene YNL265C): 0.6
- The level of expressed mRNA in the presence of chemical substance/absence: YNL276C (gene YNL276C): 0.5
- level of expressed mRNA in the presence of chemical substance/in its absence (gene YNL322C): 3.7
- level of expressed mRNA in the presence of chemical substance/in its absence (gene YNR002C): 1.0
- level of expressed mRNA in the presence of chemical substance/in its absence (gene YNR019W): 1.6
- level of expressed mRNA in the presence of chemical substance/in its absence (gene YNR033W): 1.3
- The level of expressed mRNA in the presence of chemical substance/absence: YNR051C (gene YNR051C): 1.2
- level of expressed mRNA in the presence of chemical substance/in its absence (gene YNR059W): 1.0
- The level of expressed mRNA in the presence of chemical substance/absence: YOL026C (gene YOL026C): 0.9
- The level of expressed mRNA in the presence of chemical substance/absence: YOL030W (gene YOL030W): 0.9
- level of expressed mRNA in the presence of chemical substance/in its absence (gene YOL058W): 2.7
- level of expressed mRNA in the presence of chemical substance/in its absence (gene YOL126C): 1.4
- level of expressed mRNA in the presence of chemical substance/in its absence (gene YOL143C): 1.0
- level of expressed mRNA in the presence of chemical substance/in its absence (gene YOL153C): 1.2
- level of expressed mRNA in the presence of chemical substance/in its absence (gene YOL157C): 1.1
- The level of expressed mRNA in the presence of chemical substance/absence: YOR022C (gene YOR022C): 0.8
- The level of expressed mRNA in the presence of chemical substance/absence: YOR087W (gene YOR087W): 0.8
- The level of expressed mRNA in the presence of chemical substance/absence: YOR088W (gene YOR088W): 0.8
- level of expressed mRNA in the presence of chemical substance/in its absence (gene YOR099W): 1.5
- level of expressed mRNA in the presence of chemical substance/in its absence (gene YOR130C): 1.0
- level of expressed mRNA in the presence of chemical substance/in its absence (gene YOR136W): 1.2
- The level of expressed mRNA in the presence of chemical substance/absence: YOR138C (gene YOR138C): 1.0
- The level of expressed mRNA in the presence of chemical substance/absence: YOR155C (gene YOR155C): 0.9
- The level of expressed mRNA in the presence of chemical substance/absence: YOR253W (gene YOR253W): 1.1
